From US20250320227A1, “MACROCYCLIC OREXIN RECEPTOR AGONISTS AND USES THEREOF” (Jazz Pharmaceuticals Ireland Limited, priority 2022, published 2025)

Target: T1, human recombinant OX2 (hOX2) receptors expressed in CHO cells (Homo sapiens, UniProt O43614)
T1 construct: host or cells: CHO cells (hOX2-CHO)
T1 sequence (O43614 1-444): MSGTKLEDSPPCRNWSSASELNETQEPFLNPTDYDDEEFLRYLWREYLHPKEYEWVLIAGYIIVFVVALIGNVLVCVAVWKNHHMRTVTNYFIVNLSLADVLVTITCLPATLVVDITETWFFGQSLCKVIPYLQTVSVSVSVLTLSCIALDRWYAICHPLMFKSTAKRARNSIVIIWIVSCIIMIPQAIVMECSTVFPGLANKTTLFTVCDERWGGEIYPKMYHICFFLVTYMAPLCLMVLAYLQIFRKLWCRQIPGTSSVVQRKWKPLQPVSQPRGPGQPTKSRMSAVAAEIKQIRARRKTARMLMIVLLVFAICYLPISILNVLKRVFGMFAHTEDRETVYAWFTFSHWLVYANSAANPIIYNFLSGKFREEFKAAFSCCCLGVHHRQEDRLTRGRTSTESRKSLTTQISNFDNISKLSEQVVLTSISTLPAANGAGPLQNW
Experiment: IP-1 accumulation assay (IP-One HTRF) in hOX2-CHO cells
Type: cell-based
Conditions: 60 min incubation at 37° C., mean of at least two independent experiments, read-out: EC50_OX2R Category
Experimental: The accumulation of Inositol-1 Monophosphate (IP-1) was measured using IP-One HTRF® Terbium cryptate based assay (Cisbio) in human recombinant OX1 (hOX1) and at OX2 (hOX2) receptors expressed in CHO cells (DiscoverX) according to the manufacturer's instructions for cells tested in suspension.
hOX1-CHO and hOX2-CHO cells were seeded into white 384-well plates at a density of 20,000 cells/well in Hank's Balanced Salt Solution (HBSS) containing 20 mM HEPES pH 7.4, 50 mM, LiCl and 0.1% and Bovine Serum Albumin (BSA).
Compounds of disclosure were tested in an 11 points concentration response curve (CRC) serially diluted in neat DMSO at 200 fold concentrations and added by Echo acoustic liquid handling (Labcyte) to the cells (0.5% DMSO final in the assay). After 60 min of incubation at 37° C. detection reagents, IP1-d2 tracer and anti-IP1-cryptate were diluted in lysis buffer according to the manufacturer's descriptions and added to the cells.
Following 60 min incubation at room temperature, time-resolved fluorescence (HTRF) was measured at 615 nm and 665 nm by Envision Multilabel reader (Perkin Elmer) and the HTRF ratio (A665/A615×10^4) was calculated.
The IP-1 accumulation response was expressed as percentage of the maximal OX-A response.
Curve fitting and EC50 estimations were carried out using a four-parameter logistic model using XLfit Software. Mean data of EC50 are calculated from at least two independent experiments performed in duplicates

EC50 [nM] | Structure (SMILES)
> 10000 | O=C1COCC2(CCCN3C(=O)OCCOc4ccccc4-c4cccc(c4F)CC32)N1 (racemic) [Example 65, Rel-(3S, 18′S)-24′-fluoro-8′,11′-dioxa-13′-azaspiro[morpholine-3,17′-tetracyclo[18.3.1.0^2,70.0^13,18]tetracosane]-1′(24′),2′(7′),3′,5′,20′,22′-hexaene-5,12′-dione]
100 to 1000 | O=C1CCC2(CCCN3C(=O)COc4ccccc4[C@H]4CC[C@H](CC4)OCC32)N1 (mixture of isomers) [Example 69, Rel-(1′s,2R,16′R,19′s)-8′,18′-dioxa-11′-azaspiro[pyrrolidine-2,15′-tetracyclo-[17.2.2.0^2,70.0^11,16]tricosane]-2′(7′),3′,5′-triene-5,10′-dione]
100 to 1000 | O=C1COc2ccccc2[C@H]2CC[C@H](CC2)OCC2N1CCCC21COC(C(F)(F)F)N1 (mixture of isomers) [Example 70, Rel-(1′s,3S,16′R,19′s)-5-(trifluoromethyl)-8′,18′-dioxa-11′-azaspiro[1,4-oxazolidine-3,15′-tetracyclo[17.2.2.0^2,70.0^11,16]tricosane]-2′(7′),3′,5′-trien-10′-one]
< 100 | O=C1COCC2(CCCN3C(=O)C4(CC4)COc4cccc(F)c4[C@H]4CC[C@H](CC4)OCC32)N1 (mixture of isomers) [Example 72, (1′s,20′s)-3′-fluorodispiro [cyclopropane-1,10′-[8,19]dioxa-[12]azatetracyclo [18.2.2.0^2,^7.0^12,^17]tetracosane-16′,3″- morpholine]-2′,4′,6′-triene-5″,11′-dione]
< 100 | O=C1COCC2(CCCN3C(=O)CCCCOc4cccc(n4)[C@H]4CC[C@H](CC4)OCC32)N1 (mixture of isomers) [Example 76, (1′s,21′s)-7′,20′-dioxa-13′,26′-diazaspiro[morpholine-3,17′-tetracyclo[19.2.2.1^2,60.0^13,18]hexacosane]-2′,4′,6′(26′)-triene-5,12′-dione]
100 to 1000 | CC1CC(=O)N2CCC3(COCC(=O)N3)C2CO[C@H]2CC[C@H](CC2)c2ccccc2O1 (relative stereo) [Example 4, rel-(1′s,3S,16′R,19′s)-9′-methyl-8′,18′-dioxa-12′-azaspiro[morpholine-3,15′-tetracyclo[17.2.2.0^2,70.0^12,16]tricosane]-2′(7′),3′,5′-triene-5,11′-dione]
1000 to 10000 | O=C1COCC2(CCN3C(=O)CC(C(F)(F)F)Oc4ccccc4[C@H]4CC[C@H](CC4)OCC32)N1 (relative stereo) [Example 6, rel-(1′s,3S,16′R,19′s)-9′-(trifluoromethyl)-8′,18′-dioxa-12′-azaspiro[morpholine-3,15′-tetracyclo[17.2.2.0^2,70.0^12,16]tricosane]-2′(7′),3′,5′-triene-5,11′-dione]
< 100 | O=C1NC2(CCN3C(=O)CCOc4ccccc4[C@H]4CC[C@H](CC4)OCC32)COC1F (relative stereo) [Example 8, rel-(1′s,3S,16′R,19′s)-6-fluoro-8′,18′-dioxa-12′-azaspiro[morpholine-3,15′-tetracyclo[17.2.2.0^2,70.0^12,16]tricosane]-2′(7′),3′,5′-triene-5,11′-dione]
< 100 | C[C@@H]1CC2(COCC(=O)N2)C2CO[C@H]3CC[C@H](CC3)c3ccccc3OCCC(=O)N21 (relative stereo) [Example 13, rel-(1′s,3S, 13′R,16′R,19′s)-13′-methyl-8′,18′-dioxa-12′-azaspiro[morpholine-3,15′-tetracyclo[17.2.2.0^2,70.0^12,16]tricosane]-2′(7′),3′,5′-triene-5,11′-dione]
< 100 | O=C1COc2ccccc2[C@H]2CC[C@H](CC2)OC[C@@H]2N1CCC[C@@]21CO[C@](F)(C(F)(F)F)C(=O)N1 (relative stereo) [Example 71a, rel-(1′s,3S,16′R,19′s)-6 (R)-fluoro-6-(trifluoromethyl)-8′,18′-dioxa-11′-azaspiro[morpholine-3,15′-tetracyclo[17.2.2.0^2,70.0^11,16]tricosane]-2′(7′),3′,5′-triene-5,10′-dione]
